Experimental data taken from ChEMBL document CHEMBL2057124, “Benzoheterocyclic amodiaquine analogues with potent antiplasmodial activity: synthesis and pharmacological evaluation” (Bioorg Med Chem Lett, 2012).

Tests used:
Plasmodium falciparum [1] = experiment: Antiplasmodial activity against chloroquine-resistant Plasmodium falciparum W2 infected in human erythrocytes after 48 hrs by Geimsa staining; type: functional, organism-based; details: W2, 48 h
Plasmodium falciparum [2] = experiment: Antiplasmodial activity against chloroquine-resistant Plasmodium falciparum K1 assessed as [3H]hypoxanthine incorporation after 24 hrs by scintillation counting; type: functional, organism-based
L6 = experiment: Cytotoxicity against rat L6 cells after 72 hrs by alamar blue assay; type: cell-based; details: L6, 72 h
[3] = Selectivity ratio of IC50 for rat L6 cells to IC50 for […]; type: ADME, cell-based; details: read-out: Ratio IC50
Plasmodium falciparum [4] = experiment: Resistance ratio of IC50 for chloroquine-resistance Plasmodium falciparum K1 to IC50 for […]; type: functional

In the case of CCN(CC)Cc1cc(Nc2ccnc3cc(Cl)ccc23)ccc1O, the IC50 (Plasmodium falciparum [1]) is reported as 5 nM and the IC50 (Plasmodium falciparum [2]) is reported as 8 nM.
For CC(C)(C)Nc1nc2cc(Nc3ccnc4cc(Cl)ccc34)ccc2s1, the IC50 (L6) was 4130 nM, the IC50 (Plasmodium falciparum [1]) was 1160 nM and the IC50 (Plasmodium falciparum [2]) was 917 nM. It also gave a selectivity ratio [3] of 3.56.
Clc1ccc2c(Nc3ccc4sc(NCCN5CCCC5)nc4c3)ccnc2c1 gave an IC50 (L6) of 5120 nM, an IC50 (Plasmodium falciparum [1]) of 12 nM and an IC50 (Plasmodium falciparum [2]) of 14 nM. For the same molecule, the “Ratio IC50” value (Plasmodium falciparum [4]) was 1.2 and the selectivity ratio [3] was 426.
With Clc1ccc2c(Nc3ccc4sc(NCCN5CCCCC5)nc4c3)ccnc2c1 the IC50 (L6) was 3540 nM, the IC50 (Plasmodium falciparum [1]) was 13 nM and the IC50 (Plasmodium falciparum [2]) was 7 nM. It also gave a selectivity ratio [3] of 272.
Work on Clc1ccc2c(Nc3ccc4sc(NCCN5CCOCC5)nc4c3)ccnc2c1 yielded an IC50 (L6) of 4670 nM, an IC50 (Plasmodium falciparum [1]) of 40 nM and an IC50 (Plasmodium falciparum [2]) of 25 nM. It also gave a selectivity ratio [3] of 117.
With CCN(CC)CCNc1nc2cc(Nc3ccnc4cc(Cl)ccc34)ccc2s1 the IC50 (Plasmodium falciparum [1]) was 11 nM.
CCNc1nc2cc(Nc3ccnc4cc(Cl)ccc34)ccc2o1 gave an IC50 (L6) of 16400 nM, an IC50 (Plasmodium falciparum [1]) of 491 nM and an IC50 (Plasmodium falciparum [2]) of 921 nM. It also gave a selectivity ratio [3] of 33.3.
With Clc1ccc2c(Nc3ccc4oc(NCCN5CCCC5)nc4c3)ccnc2c1 the IC50 (L6) was 8700 nM, the IC50 (Plasmodium falciparum [1]) was 8 nM and the IC50 (Plasmodium falciparum [2]) was 22 nM. The “Ratio IC50” value (Plasmodium falciparum [4]) was 2.8 and the selectivity ratio [3] was 1090.
CCNc1nc2cc(Nc3ccnc4cc(Cl)ccc34)ccc2[nH]1 gave an IC50 (L6) of 5710 nM, an IC50 (Plasmodium falciparum [1]) of 501 nM and an IC50 (Plasmodium falciparum [2]) of 249 nM. The selectivity ratio [3] was 11.4.
For Clc1ccc2c(Nc3ccc4[nH]c(NCCN5CCCCC5)nc4c3)ccnc2c1, the IC50 (L6) was 5250 nM, the IC50 (Plasmodium falciparum [1]) was 4580 nM and the IC50 (Plasmodium falciparum [2]) was 90 nM. For the same molecule, the selectivity ratio [3] was 1.15.
Molecule CCN(CC)CCNc1nc2cc(Nc3ccnc4cc(Cl)ccc34)ccc2[nH]1 has an IC50 (L6) of 15300 nM, an IC50 (Plasmodium falciparum [1]) of 200 nM and an IC50 (Plasmodium falciparum [2]) of 827 nM. The selectivity ratio [3] was 76.4.
In the case of Clc1ccc2c(Nc3ccc(NCCN4CCCC4)nc3)ccnc2c1, the IC50 (L6) is reported as 18600 nM, the IC50 (Plasmodium falciparum [1]) is reported as 21 nM and the IC50 (Plasmodium falciparum [2]) is reported as 92 nM. The “Ratio IC50” value (Plasmodium falciparum [4]) was 4.4 and the selectivity ratio [3] was 885.
In the case of Clc1ccc2c(Nc3ccc(NCCN4CCOCC4)nc3)ccnc2c1, the IC50 (L6) is reported as 47400 nM, the IC50 (Plasmodium falciparum [1]) is reported as 41 nM and the IC50 (Plasmodium falciparum [2]) is reported as 73 nM. The selectivity ratio [3] was 1160.
